# pIC50: −log10 of the molar value. No end group written: not given here.
# How the values were obtained:
# [1] = Solubility of peptides in aqueous solutions at different pH (visual inspection, OD, HPLC); type: physicochemical; conditions: for Solubility at pH 7: evaluated by visual inspection
# Source text: This example describes modifications of parent peptides to improve the aqueous solubility, in particular to increase the solubility in an aqueous solution having pH in a physiologically acceptable range, e.g. from 6 to 8. Solubility is closely related to the ratio between hydrophilic and hydrophobic amino acid residues and the net charge state of the peptide. Peptides have zero net charge at pH=pI, and would be expected to show the lowest solubility at this pH. […] The solubility of these peptides was increased at pH values outside the physiological range (data not shown).
# Peptides were tested for their ability to dissolve in aqueous solutions at different pH values. In short, each of the peptides were dissolved in water (pH about 5-6), hydrochloride solution at pH 2 (10 mM HCl), acetate buffer with pH 5 (20 mM acetate and 140 mM sodium chloride), phosphate buffer with pH 7 (20 mM phosphate and 140 mM sodium chloride) or bistrispropate buffer with pH 9 (20 mM bitrispropane and 140 mM sodium chloride, respectively, to produce a final molar concentration of the peptide of about 0.25 mM or 1 mM. Optionally, about 20% DMSO may be part of the solution. For comparison reasons, peptides were also dissolved in acetonitrile or DMSO. The solutions were inspected visually before and after centrifugation for turbidity, presence of particles/aggregates. In addition, presence of turbidity/particles/aggregates were detected by optical density (OD), but might also be detected by size-exclusion chromatography. Sub-visual particles may also be detected by dynamic light scattering (DLS) analysis. The solubility and stability of each peptide were also investigated using HPLC, e.g. RP-HPLC. For example, each of the solutions were injected onto the HPLC and the peak height or peak area of each of the peptides were compared to the corresponding peptide of a chromatogram of peptides dissolved in acetonitrile or DMSO—as peptides were assumed to be fully dissolved and stable in these solvents.
# DRB1_0101 = DRB1_0101 (Homo sapiens, UniProt P01903+P01911, A100R/D57E/F55L/F60I/F76Y/I96L/L162R/M171V/P40L/Q125E/R42F/V115G/Y59C); experiment: Competitive MHC class II binding assay, DRB1_0101;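 note: competition against a radiolabeled probe peptide (0.1–1 nM) for purified HLA class II protein over 2–4 days, bound counts read after antibody capture, six competitor levels across 100,000-fold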
# DRB1_0701 = DRB1_0701 (Homo sapiens, UniProt P01903+P01911, A100R/A102G/A103Q/D57E/D86V/E43K/F76Y/K127E/L162R/M171V/P40G/Q125H/Q99D/R33Q/R42Y/R54Q/S133A/S66F/T210M/V115G/Y107V/Y59L/Y89S); experiment: Competitive MHC class II binding assay, DRB1_0701;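 note: displacement of a radiolabeled reference peptide from purified HLA class II protein, with complex-bound radioactivity counted after 2–4 days of incubation and six concentrations spanning a 100,000-fold range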
# DRB1_0901 = DRB1_0901 (Homo sapiens, UniProt P01903+P01911, A100R/A103E/D57H/D86V/F55Y/F60I/F76Y/I96F/K127E/L162R/M171V/P40D/Q125H/Q99R/R33Q/R42F/S133A/S66N/T210M/V115G/W38K/Y107V/Y59G/Y89S); experiment: Competitive MHC class II binding assay, DRB1_0901;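 note: displacement of a radiolabeled probe peptide from purified HLA class II protein, bound counts read after two to four days incubation, six concentrations spanning 100,000-fold, unlabeled probe as reference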
# DRB1_1302 = DRB1_1302 (Homo sapiens, UniProt P01903+P01911, A100E/A169T/K41T/L162R/M171V/P40S/Q125H/Q178H/Q39Y/Q99D/R42S/S66N/T262R/V115G/W38E/Y61H); experiment: Competitive MHC class II binding assay, DRB1_1302;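 note: purified HLA class II protein incubated two to four days with a radiolabeled reference binder and test peptide at six concentrations over a 100,000-fold range, complex-bound radioactivity counted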
# DRB1_1501 = DRB1_1501 (Homo sapiens, UniProt P01903+P01911); experiment: Competitive MHC class II binding assay, DRB1_1501
# DRB4_0101 = DRB4_0101 (Homo sapiens, UniProt P01903+P13762, G164S); experiment: Competitive MHC class II binding assay, DRB4_0101
# DQA10501-DQB10301 = DQA10501-DQB10301 (Homo sapiens, UniProt P01909+P01920); experiment: Competitive MHC class II binding assay, DQA10501-DQB10301
# DQA10102-DQB10602 = experiment: Competitive MHC class II binding assay, DQA10102-DQB10602; conditions: read-out: HLA-DQA10102-DQB10602; positive binding at cutoff 1000 nM
# DRB5_0101 = DRB5_0101 (Homo sapiens, UniProt P01903+Q30154); experiment: Competitive MHC class II binding assay, DRB5_0101
# DRB1_0401 = DRB1_0401 (Homo sapiens, UniProt P01903+P01911, A100K/A169T/F76Y/I96L/K127E/L162R/M171V/N62H/P40V/Q125Y/R42H/S133A/S149N/S66Y/V115G/V209L/W38E); experiment: Competitive MHC class II binding assay, DRB1_0401
# DRB1_0405 = DRB1_0405 (Homo sapiens, UniProt P01903+P01911, A100R/A169T/D86S/F76Y/I96L/K127E/L162R/M171V/N62H/P40V/Q125Y/R42H/S133A/S149N/S66Y/V115G/V209L/W38E); experiment: Competitive MHC class II binding assay, DRB1_0405
# DRB1_0802 = DRB1_0802 (Homo sapiens, UniProt P01903+P01911, A100R/A103L/A169T/F76Y/H45Y/I96F/K41T/L162R/M171V/P40S/Q125H/Q178H/Q39Y/Q99D/R218S/R42G/S66Y/V115G/W38E); experiment: Competitive MHC class II binding assay, DRB1_0802
# DRB3_0101 = DRB3_0101 (Homo sapiens, UniProt P01903+P79483); experiment: Competitive MHC class II binding assay, DRB3_0101
# DRB1_1101 = DRB1_1101 (Homo sapiens, UniProt P01903+P01911, A100R/A169T/A87E/I96F/K41T/L162R/M171V/P40S/Q125H/Q178H/Q39Y/Q99D/R42S/S66Y/T262R/V115G/W38E); experiment: Competitive MHC class II binding assay, DRB1_1101
# DRB3_0202 = DRB3_0202 (Homo sapiens, UniProt P01903+P79483, A212P/D57E/F66Y/L67A/R103Q/R218S/R40L/S89Y/T80R/V86D/Y55F/Y59H); experiment: Competitive MHC class II binding assay, DRB3_0202
# DQA10501-DQB10201 = DQA10501-DQB10201 (Homo sapiens, UniProt P01909+P01920, A45G/A70V/D89A/E106A/E77G/E98D/H199R/L107V/N214S/P84L/P87L/T103K/T109R/T172A/T60S/V78E/V99I/Y58L/Y62S/Y69I/Y79F); experiment: Competitive MHC class II binding assay, DQA10501-DQB10201
compound,measurement,setting,value
RRREALAQTHSAIAVIIGIKDLDAR [Peptide 145],Solubility at pH 7 (visual inspection),[1],Clear
CC[C@H](C)[C@H](NC(=O)[C@H](CO)NC(=O)[C@@H]1CCCN1C(=O)[C@H](CCC(=O)O)NC(=O)[C@H](CO)NC(=O)CNC(=O)[C@H](Cc1c[nH]cn1)NC(=O)[C@H](CO)NC(=O)CN)C(=O)N[C@H](C(=O)N[C@@H](Cc1c[nH]cn1)C(=O)N[C@@H](CCCNC(=N)N)C(=O)NCC(=O)N[C@@H](CCCCN)C(=O)N1CCC[C@H]1C(=O)N[C@@H](Cc1ccccc1)C(=O)N[C@@H](CCC(N)=O)C(=O)N[C@@H](CC(C)C)C(=O)N[C@@H](CCC(=O)O)C(=O)N[C@@H](C)C(=O)O)[C@@H](C)CC [pep-090],pIC50,DRB1_0101,> 6.00
same,pIC50,DRB1_0701,> 6.00
same,pIC50,DRB1_0901,> 6.00
same,pIC50,DRB1_1302,> 6.00
same,pIC50,DRB1_1501,> 6.00
same,pIC50,DRB4_0101,> 6.00
same,pIC50,DQA10501-DQB10301,> 6.00
same,pIC50,DQA10102-DQB10602,> 6.00
HRGKPFQLEAVFEANQNTKT-NH2 [pep-151],Solubility at pH 7,[1]; Table 11c,Clear
YPPNANKIREALAQTHSAIA [pep-053],pIC50,DRB1_0101,> 6.00
same,pIC50,DRB1_0701,> 6.00
same,pIC50,DRB1_0901,> 6.00
same,pIC50,DRB4_0101,> 6.00
same,pIC50,DRB5_0101,> 6.00
same,pIC50,DQA10501-DQB10301,> 6.00
same,pIC50,DQA10102-DQB10602,> 6.00
RHAVNIVGYSNAQGVDYWIVRR [Peptide 137],Solubility at pH 7 (visual inspection),[1],Clear
RRHAVNIVGYSNAQGVDYWIVRRR [Peptide 133],Solubility at pH 7 (visual inspection),[1],Clear
RRREALAQTHSAIAVIIGIKDLDARR [Peptide 146],Solubility at pH 7 (visual inspection),[1],Clear
"ESVKYVQSNGGAI [HDM201, reference compound]",pIC50,DRB1_0101,> 6.00
same,pIC50,DRB1_0401,> 6.00
same,pIC50,DRB1_0405,> 6.00
same,pIC50,DRB1_0701,> 6.00
same,pIC50,DRB1_0802,> 6.00
same,pIC50,DRB1_0901,> 6.00
same,pIC50,DRB1_1302,> 6.00
same,pIC50,DRB1_1501,> 6.00
same,pIC50,DRB3_0101,> 6.00
same,pIC50,DRB4_0101,> 6.00
GSHGSDPSIIHRGKPFTLEA [pep-102],pIC50,DRB1_0101,> 6.00
same,pIC50,DRB1_0701,> 6.00
same,pIC50,DRB1_0901,> 6.00
same,pIC50,DRB1_1501,> 6.00
same,pIC50,DRB4_0101,> 6.00
same,pIC50,DQA10501-DQB10301,> 6.00
same,pIC50,DQA10102-DQB10602,> 6.00
KIREALAQTHSAIAVIIGIKDLDA-NH2 [pep-150],Solubility at pH 7,[1]; Table 11c,Clear
"RGLKQMKRVGDANV [HDM35A, reference compound]",pIC50,DRB1_0101,> 6.00
same,pIC50,DRB1_0802,> 6.00
same,pIC50,DRB1_1101,> 6.00
RRIEYIQQNGVVEERSYPYVARRR [Peptide 142],Solubility at pH 7 (visual inspection),[1],Clear
CC[C@H](C)[C@H](NC(=O)[C@@H](NC(=O)[C@@H](N)CO)[C@@H](C)CC)C(=O)N[C@@H](Cc1c[nH]cn1)C(=O)N[C@@H](CCCNC(=N)N)C(=O)NCC(=O)N[C@@H](CCCCN)C(=O)N1CCC[C@H]1C(=O)N[C@@H](Cc1ccccc1)C(=O)N[C@@H](CCC(N)=O)C(=O)N[C@@H](CC(C)C)C(=O)N[C@@H](CCC(=O)O)C(=O)N[C@@H](C)C(=O)O [pep-002],pIC50,DRB1_0101,> 6.00
same,pIC50,DRB1_0701,> 6.00
same,pIC50,DRB1_0901,> 6.00
same,pIC50,DRB1_1302,> 6.00
same,pIC50,DRB1_1501,> 6.00
same,pIC50,DRB4_0101,> 6.00
same,pIC50,DQA10501-DQB10301,> 6.00
NHEIKKVLVPGSHGSEPSII [pep-089],pIC50,DRB1_0802,> 6.00
same,pIC50,DRB4_0101,> 6.00
RREALAQTHSAIAVIIGIKDLDAR [Peptide 144],Solubility at pH 7 (visual inspection),[1],Clear
LVGDNGVLASAIATHAKIRD-NH2 [pep-149],Solubility at pH 7,[1]; Table 11c,Clear
TNASSINGNAPAEIDLRQM [pep-041],pIC50,DRB1_1302,> 6.00
same,pIC50,DRB3_0101,> 6.00
same,pIC50,DRB3_0202,> 6.00
same,pIC50,DQA10501-DQB10201,> 6.00
RIEYIQQNGVVEERSYPYVARR [Peptide 140],Solubility at pH 7 (visual inspection),[1],Clear
"SYYRYVAREQS [HDM205, reference compound]",pIC50,DRB1_0401,> 6.00
same,pIC50,DRB1_0405,> 6.00
same,pIC50,DRB1_0701,> 6.00
same,pIC50,DRB1_0802,> 6.00
same,pIC50,DRB1_0901,> 6.00
same,pIC50,DRB1_1101,> 6.00
same,pIC50,DRB1_1302,> 6.00
same,pIC50,DRB1_1501,> 6.00
same,pIC50,DRB4_0101,> 6.00
RHAVNIVGYSNAQGVDYWIVR [Peptide 136],Solubility at pH 7 (visual inspection),[1],Slight turbid
RRIEYIQQNGVVEERSYPYVARR [Peptide 141],Solubility at pH 7 (visual inspection),[1],Clear
RREALAQTHSAIAVIIGIKDLDA [Peptide 143],Solubility at pH 7 (visual inspection),[1],Slight turbid
RIEYIQQNGVVEERSYPYVAR [Peptide 139],Solubility at pH 7 (visual inspection),[1],Clear
RRRRHAVNIVGYSNAQGVDYWIVR [Peptide 132],Solubility at pH 7 (visual inspection),[1],Slight turbid
CC[C@H](C)[C@H](NC(=O)CNC(=O)[C@@H](N)CCCNC(=N)N)C(=O)N[C@@H](CCC(=O)O)C(=O)N[C@@H](Cc1ccc(O)cc1)C(=O)N[C@H](C(=O)N[C@@H](CCC(N)=O)C(=O)N[C@@H](Cc1c[nH]cn1)C(=O)N[C@@H](CC(N)=O)C(=O)NCC(=O)N[C@H](C(=O)N[C@H](C(=O)N[C@@H](CCC(N)=O)C(=O)N[C@@H](CCC(=O)O)C(=O)N[C@@H](CO)C(=O)O)C(C)C)C(C)C)[C@@H](C)CC [pep-025],pIC50,DQA10102-DQB10602,> 6.00
RGIEYIQQNGVVEERSYPYVAR [pep-134],Solubility at pH 7,[1]; Table 11a,Clear
RRHAVNIVGYSNAQGVDYWIVRR [Peptide 138],Solubility at pH 7 (visual inspection),[1],Slight turbid
